Experimental data as given in the NIST ThermoML archive (doi:10.1016/j.jct.2016.07.051).

Assay: mn = molality of the nth substance listed, in mol/kg
Conditions: 100 kPa, Liquid; for speed of sound: Frequency=3 MHz, Sing-around technique in a fixed-path interferometer; for mass density: Vibrating tube method

O=C[C@H](O)[C@@H](O)[C@H](O)[C@H](O)CO [D-glucose] + O
Conditions	mass density [kg/m3]	speed of sound [m/s]
293.15 K, m1 = 0.05008	1001.67	–
293.15 K, m1 = 0.0698	1003.02	1487
293.15 K, m1 = 0.09118	1004.47	1488.3
293.15 K, m1 = 0.1108	1005.8	1489.5
293.15 K, m1 = 0.1312	–	1490.8
298.15 K, m1 = 0.05008	1000.44	–
298.15 K, m1 = 0.0698	1001.76	1501.4
298.15 K, m1 = 0.09118	1003.17	1502.7
298.15 K, m1 = 0.1108	1004.47	1504
298.15 K, m1 = 0.1312	1005.8	1505.3
303.15 K, m1 = 0.05008	999.038	1512.2
303.15 K, m1 = 0.0698	1000.35	1513.4
303.15 K, m1 = 0.09118	1001.76	1514.7
303.15 K, m1 = 0.1108	1003.05	1515.9
303.15 K, m1 = 0.1312	1004.38	1517.2
303.15 K, m1 = 0.1499	1005.58	1518.3
308.15 K, m1 = 0.05008	997.396	1522.8
308.15 K, m1 = 0.0698	998.701	1524
308.15 K, m1 = 0.09118	1000.11	1525.4
308.15 K, m1 = 0.1108	1001.39	1526.6
308.15 K, m1 = 0.1312	1002.71	–
308.15 K, m1 = 0.1499	1003.91	1529
313.15 K, m1 = 0.05008	995.571	1531.6
313.15 K, m1 = 0.0698	996.873	1532.8
313.15 K, m1 = 0.09118	998.274	1534
313.15 K, m1 = 0.1108	999.553	1535.1
313.15 K, m1 = 0.1312	1000.87	1536.2
313.15 K, m1 = 0.1499	1002.06	1537.3
318.15 K, m1 = 0.05008	993.55	–
318.15 K, m1 = 0.0698	994.845	1540.2
318.15 K, m1 = 0.09118	996.24	1541.4
318.15 K, m1 = 0.1108	–	1542.4
318.15 K, m1 = 0.1312	998.817	–
318.15 K, m1 = 0.1499	1000	1544.6
323.15 K, m1 = 0.05008	991.349	1545.3
323.15 K, m1 = 0.0698	992.639	1546.3
323.15 K, m1 = 0.09118	994.028	1547.4
323.15 K, m1 = 0.1108	995.295	1548.5
323.15 K, m1 = 0.1312	996.6	1549.5
323.15 K, m1 = 0.1499	997.788	1550.5

CCC[NH3+].O=C[O-] [propylammonium formate] + O
Conditions	mass density, m1 = 0.1 [kg/m3]	mass density, m1 = 0.2 [kg/m3]	mass density, m1 = 0.3 [kg/m3]	mass density, m1 = 0.4 [kg/m3]	speed of sound, m1 = 0.1 [m/s]	speed of sound, m1 = 0.2 [m/s]	speed of sound, m1 = 0.3 [m/s]	speed of sound, m1 = 0.4 [m/s]
293.15 K	999.222	1000.07	1000.91	1001.81	1492.2	1500.4	1508.2	1516.9
298.15 K	997.851	998.673	999.689	1000.56	1505.7	1513.4	1520.8	1528.9
303.15 K	996.637	997.448	998.238	999.087	1517.5	1524.9	1531.8	1539.4
308.15 K	994.884	995.676	996.581	997.41	1527.8	1534.7	1541.3	1548.4
313.15 K	993.191	993.97	994.725	995.542	1536.4	1543	1549.3	1555.9
318.15 K	990.986	991.749	992.694	993.502	1543.6	1549.9	1555.9	1562
323.15 K	988.793	989.611	990.498	991.295	1550.5	1555.4	1561.1	1566.9

O [water] + CCC[NH3+].O=C[O-]
m2 = 0
Conditions	mass density [kg/m3]	speed of sound [m/s]
313.15 K	–	1528.9
318.15 K	–	1536.6
323.15 K	988.031	–

O [water] + O=C[C@H](O)[C@@H](O)[C@H](O)[C@H](O)CO
m2 = 0
Conditions	mass density [kg/m3]	speed of sound [m/s]
313.15 K	–	1528.9
318.15 K	–	1536.6
323.15 K	988.031	–
